From publication PMC5335257, “Promoting in vivo remyelination with small molecules: a neuroreparative pharmacological treatment for Multiple Sclerosis” (Scientific Reports, 2017)

Columns and labels:
[1] = parameters: method as in PMID 23077723, PMID 25264825; details: cited from earlier work
[2] = tested on: cerebellar slices demyelinated with LPC; experiment: Ex vivo remyelination in cerebellar slice cultures demyelinated with LPC; assay type: cell-based, CD1 P7 mice; details: 5 μM, 3 days post lesion (3DPL)
Protocol: The protocol used was modified from previously described. CD1 P7 mice were decapitated, and their cerebella were dissected into ice-cold HBSS (Invitrogen). 300 μm sagittal slices of cerebellum were cut using a McIllwain tissue chopper, placed on Millicell-CM organotypic culture inserts (3 slices per insert; Millipore) in a medium containing HBSS:BME: horse serum (1:2:1, Invitrogen), 28 mM D (+) - glucose (Normapur), […] L-Glutamine (Invitrogen) and 100 U/mL penicillin, 0.1 mg/mL streptomycin and 0.25 μg/ml Amphotericin B antibiotic anti-mycotic solution (Sigma) and maintained at 5% CO2 and 37 °C. Medium was changed every two days, and after 7 days in culture, demyelination was induced by addition of 0.5 mg/ml LPC (Sigma) to the medium for 15 h. After that, slices were treated with fresh medium containing PDE7-GSK3 or GSK3 inhibitors (VP1.15, VP3.15 or TDZD8; 5 μM). Cultures were maintained for 1 or 3 days post lesion (DPL), and then fixed for 40 minutes and immunostained with anti-MBP antibodies (myelin basic protein –as a marker of myelin; 1:200; Serotec; Cat#MCA4095) and anti-neurofilament antibody (as a marker of axons; 1:200; Abcam; Cat#ab8135). Fluorescence images were taken on a confocal SP5 resonant scanner (Leica Microsystems) at 1μm intervals in white matter areas at x40 magnification. The photographs were merged and co-localisation of both markers was quantified with Image J software using the colocalization highlighter plugin. This measurement was related to the area occupied by axons (neurofilament staining) and normalized with control values showing the data as the mean normalized myelination index ± SEM. Quantification was made in at least three independent experiments.

GSK-3 = tested on: GSK-3; parameters: method as in PMID 24437940; details: read-out: GSK-3 inhibition IC50; cited from earlier work
adult human OPCs = experiment: Differentiation assay, adult human OPCs; assay type: cell-based
Protocol: Human brain samples were obtained from adult patients of temporal lobe epilepsy resistant to pharmacological treatment or traumatic brain injury; they underwent surgical treatment by the Neurosurgery Service at the Hospital Universitario de La Princesa (Madrid, Spain) and Hospital 12 de Octubre (Madrid, Spain). All tissue samples were obtained under protocols approved by the Research Ethics Committee of Toledo (Spain) review boards. All were conducted in accordance with the Helsinki Declaration and were approved by the Research Ethics Committee of Toledo (Spain). All patients provided informed consent prepared under the guidelines of the Research Ethics Committee at their respective hospital in Madrid (Spain).
For cells obtained from human biopsies, the same protocol was used except that papain solution was used 1:2.5 in HBSS for 10 minutes for meningeal disintegration and 1:10 in HBSS for 15 minutes for the tissue digestion, 25 cm[2] flasks were used, the medium was supplemented with 10 ng/ml of human PDGF-AA (Millipore) for 2 weeks and then incubated for 2 more weeks without growth factors before shaking and the shaking was carried out at 230 rpm instead of 250 rpm.
Purified OPCs were placed on coverslips coated with poly-L-lysine and laminin in 24-well tissue culture dishes at a density of 2 × 10^4 cells/well. To promote differentiation, the cells were maintained in the differentiation medium (described above) and PDE7-GSK3 or GSK3 inhibitors (VP3.15 or TDZD8; 1 μM) were added to the culture medium. Different controls were used for the dual or single inhibitors due to the active substance being dissolved in differing amounts of DMSO. After 5, 7 and 10 DIV the cells were fixed with 4% PFA for further immunocytochemical analysis. Anti-CNPase antibodies (1:200;Covance; Cat#SMI-91R), anti-MBP antibodies (1:200; Serotec; Cat#MCA4095) for detecting oligodendrocytes and anti-Olig2 antibodies (1:250; Millipore; Cat#AB9610) as a marker for all oligodendroglial stages were used. Ten random fluorescence digital images were taken in each coverslip with a DFC480 FX digital camera (Leica) coupled to a Leica DM5000 B microscope for quantification. Data were expressed as a mean ratio of differentiated oligodendrocytes (CNPase^+-Olig2^+ double positive cells) with respect to total Olig2^+ cells ± SEM or percentage of CNPase^+ cells respect to control ± SEM, in at least three independent experiments, except with human samples (two independent experiments).

[3] = Pharmacokinetics in plasma and brain after single i.p. or oral dose; assay type: in vivo, male BALB/c mice; details: for AUCinf / AUClast / Cmax / MRT inf / MRT last / Tmax / AUC(0-inf) / AUC(0-t): male BALB/c mice; for Cmax / MRT inf / MRT last / Tmax / AUC(0-inf) / AUC(0-t): mouse
[4] = i.p. 10 mg.kg^−1 single dose, brain
[5] = ip, i.p. 10 mg.kg^−1 single dose, brain
[6] = ip, i.p. 10 mg.kg^−1 single dose, plasma
[7] = po, p.o. 50 mg.kg^−1 single dose, brain
[8] = po, p.o. 50 mg.kg^−1 single dose, plasma
[9] = p.o. 50 mg.kg^−1 single dose, brain

c1ccc(-c2n/c(=N/CCN3CCOCC3)sn2-c2ccccc2)cc1 [VP3.15]
emetic side effects [1]: without emetic side effects | remyelination (normalized myelination index) [2]: increased | IC50 (GSK-3): 880 nM | number of CNPase+-Olig2+ cells vs control (differentiation) (adult human OPCs; adult human OPCs, 1 μM, 5 DIV): significantly increased | number of primary cytoplasmic processes (adult human OPCs; adult human oligodendrocytes, control 2.9 ± 0.21, p = 0.72): 2.75 ± 0.20 | number of cytoplasmic subprocesses (adult human OPCs; adult human oligodendrocytes, control 4.3 ± 0.2, p = 0.83): 4.8 ± 0.43 | AUCinf [3, 4]: 1506.00 ng·h/g | AUClast [3, 4]: 1489.25 ng·h/g | oral bioavailability and brain penetration ([3]; mice, after oral and i.p. administration): shows oral bioavailability and brain penetration | Cmax [3, 5]: 1980 ng/g | MRT inf [3, 5]: 1.25 h | MRT last [3, 5]: 1.21 h | Tmax [3, 5]: 0.08 h | AUC(0-inf) [3, 6]: 2000 ng·h/mL | AUC(0-t) [3, 6]: 1960 ng·h/mL | Cmax [3, 6]: 1990 ng/mL | MRT inf [3, 6]: 0.91 h | MRT last [3, 6]: 0.82 h | Tmax [3, 6]: 0.25 h | Cmax [3, 7]: 497 ng/g | MRT inf [3, 7]: 4.01 h | MRT last [3, 7]: 2.07 h | Tmax [3, 7]: 0.5 h | AUC(0-inf) [3, 8]: 2380 ng·h/mL | AUC(0-t) [3, 8]: 2290 ng·h/mL | Cmax [3, 8]: 881 ng/mL | MRT inf [3, 8]: 1.86 h | MRT last [3, 8]: 1.64 h | Tmax [3, 8]: 1 h | AUCinf [3, 9]: 1794.28 ng·h/g | AUClast [3, 9]: 1375.08 ng·h/g
